# From ChEMBL document CHEMBL6096682, “Discovery of D-Ring-Contracted Artemisinin as a Potent Hydrophobic Tag for Targeted Protein Degradation” (J Med Chem, 2025)
# Calls of active or inactive are those of the source. The rule behind the calls is not given here.
# Legend:
# [1] = tested on: MCF7; test: Antiproliferative activity against human MCF7 cells overexpressing EGFR assessed as reduction in cell viability incubated for 48 hrs by MTT assay relative to control; format: functional
# [2] = tested on: MCF7; test: Antitumor activity against human MCF7 cells xenografted in Balb/c mouse assessed as inhibition of tumor growth at 5 mg/kg, iv administered every 3 days and measured for 21 days; format: functional; settings: MCF7, 504 h, time 21 day, read-out: TGI
# [3] = Nephrotoxicity in Balb/c mouse xenografted with human MCF7 cells assessed as effect on blood urea nitrogen level in serum at 5 to 10 mg/kg, iv measured after 24 hrs; format: toxicity, organism-based; settings: in vivo, dose 5-10 mg/kg
# [4] = tested on: MCF7; test: Antitumor activity against human MCF7 cells xenografted in Balb/c mouse assessed as inhibition of tumor growth at 10 mg/kg, iv administered every 3 days and measured for 21 days; format: functional; settings: MCF7, 504 h, time 21 day, read-out: TGI
# [5] = Toxicity in Balb/c mouse xenografted with human MCF7 cells assessed as effect on kidneys morphological changes at 5 to 10 mg/kg, iv measured after 24 hrs by Hematoxylin-Eosin staining based analysis; format: organism-based; settings: in vivo, dose 5-10 mg/kg
# [6] = Toxicity in Balb/c mouse xenografted with human MCF7 cells assessed as effect on heart morphological changes at 5 to 10 mg/kg, iv measured after 24 hrs by Hematoxylin-Eosin staining based analysis; format: organism-based; settings: in vivo, dose 5-10 mg/kg
# [7] = target: T1, Estrogen receptor (Homo sapiens) (UniProt P03372); test: HyT degrader activity at ER-alpha in human MCF7 cells assessed as induction of ER-alpha degradation by measuring residual ER-alpha level at 10 uM pretreated with HSP70 inhibitor, VER-155008 and HSP90 inhibitor, 17-AAG for 2 hrs followed by incubation with compound for 12 hrs by immunoblot analysis; format: cell-based
# T1 sequence (whole entry): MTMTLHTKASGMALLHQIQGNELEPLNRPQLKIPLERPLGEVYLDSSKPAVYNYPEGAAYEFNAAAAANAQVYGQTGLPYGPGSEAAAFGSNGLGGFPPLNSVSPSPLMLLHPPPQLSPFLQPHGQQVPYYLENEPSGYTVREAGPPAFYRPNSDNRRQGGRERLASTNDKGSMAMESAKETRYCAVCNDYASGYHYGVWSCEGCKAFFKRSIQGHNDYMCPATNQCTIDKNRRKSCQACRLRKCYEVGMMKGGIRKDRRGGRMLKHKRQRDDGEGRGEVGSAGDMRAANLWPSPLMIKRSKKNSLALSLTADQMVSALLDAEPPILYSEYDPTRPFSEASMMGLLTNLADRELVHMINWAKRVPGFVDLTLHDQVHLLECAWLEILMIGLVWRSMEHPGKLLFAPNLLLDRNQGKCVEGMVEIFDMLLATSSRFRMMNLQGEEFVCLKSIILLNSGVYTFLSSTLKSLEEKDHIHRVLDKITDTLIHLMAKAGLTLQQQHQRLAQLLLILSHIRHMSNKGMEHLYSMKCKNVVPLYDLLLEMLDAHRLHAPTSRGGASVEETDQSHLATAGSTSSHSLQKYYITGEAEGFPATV
# [8] = tested on: MCF7; test: Antiproliferative activity against human MCF7 cells assessed as reduction in cell viability incubated for 48 hrs by MTT assay; format: functional, cell-based; settings: MCF7, 48 h
# [9] = tested on: Mus musculus; test: In vivo induction of ER-alpha degradation in Balb/c mouse xenografted with human MCF7 cells assessed as decrease in ER-alpha expression in tumor at 5 to 10 mg/kg, iv administered every 3 days and measured on day 21 by immunofluorescence analysis; format: functional, organism-based; settings: dose 5-10 mg/kg, time 21.0 day
# [10] = target: Estrogen receptor beta (Homo sapiens) (UniProt Q92731); test: Binding affinity to ER-beta in human MCF7 cells at 100 uM incubated for 1 hr followed by exposure to heat at 25 to 66 degC for 3 mins and incubation for 3 mins at room temperature by thermal shift binding assay; format: cell-based; settings: time 66.0 min
# [11] = Hepatotoxicity in Balb/c mouse xenografted with human MCF7 cells assessed as effect on ALT level in serum at 5 to 10 mg/kg, iv measured after 24 hrs; format: toxicity, organism-based; settings: in vivo, dose 5-10 mg/kg
# [12] = target: T1, Estrogen receptor (Homo sapiens); test: HyT degrader activity at ER-alpha in human MCF7 cells assessed as induction of ER-alpha degradation by measuring decrease in ER-alpha level at 10 uM pretreated with HSP90 inhibitor, 17-AAG for 2 hrs followed by incubation with compound for 12 hrs by immunoblot analysis; format: cell-based
# [13] = target: T1, Estrogen receptor (Homo sapiens); test: HyT degrader activity at ER-alpha in human T47D cells assessed as induction of ER-alpha degradation by measuring downregulation of ER-alpha level at 1 to 5 uM incubated for 24 hrs by immunoblot analysis; format: cell-based; settings: dose 1-5 µM
# [14] = target: T1, Estrogen receptor (Homo sapiens); test: HyT degrader activity at ER-alpha in human MCF7 cells assessed as induction of ER-alpha degradation at 10 uM incubated for 24 hrs by western blot analysis; format: cell-based
# [15] = tested on: MCF7; test: Antitumor activity against human MCF7 cells xenografted in Balb/c mouse assessed as tumor volume at 10 mg/kg, iv administered every 3 days and measured for 21 days (reference value: 165.5 mm3); format: functional; settings: time 21 day
# [16] = tested on: MCF7; test: Antiproliferative activity against human MCF7 cells assessed as reduction in cell viability incubated for 48 hrs by MTT assay relative to control; format: functional
# [17] = Toxicity in Balb/c mouse xenografted with human MCF7 cells assessed as effect on white blood cells count at 5 to 10 mg/kg, iv measured after 24 hrs; format: organism-based; settings: in vivo, dose 5-10 mg/kg
# [18] = target: T1, Estrogen receptor (Homo sapiens); test: HyT degrader activity at ER-alpha in human MCF7 cells assessed as induction of ER-alpha degradation by measuring decrease in ER-alpha level at 10 uM pretreated with NAE inhibitor, MLN4924 for 2 hrs followed by incubation with compound for 12 hrs by immunoblot analysis; format: cell-based
# [19] = tested on: MCF7; test: Antiproliferative activity against human MCF7 cells overexpressing ER-alpha Y537S mutant assessed as reduction in cell viability incubated for 48 hrs by MTT assay relative to control; format: functional
# [20] = Toxicity in Balb/c mouse xenografted with human MCF7 cells assessed as effect on lungs morphological changes at 5 to 10 mg/kg, iv measured after 24 hrs by Hematoxylin-Eosin staining based analysis; format: organism-based; settings: in vivo, dose 5-10 mg/kg
# [21] = target: T1, Estrogen receptor (Homo sapiens); test: HyT degrader activity at ER-alpha in human MCF7 cells assessed as induction of ER-alpha degradation incubated for 24 hrs by western blot analysis; format: cell-based; settings: dose 0.01-100 µM
# [22] = target: T1, Estrogen receptor (Homo sapiens); test: HyT degrader activity at ER-alpha in human MCF7 cells assessed as induction of ER-alpha degradation by measuring decrease in ER-alpha level at 10 uM pretreated with 26S proteasome inhibitor, MG-132 for 2 hrs followed by incubation with compound for 12 hrs by immunoblot analysis; format: cell-based
# [23] = Nephrotoxicity in Balb/c mouse xenografted with human MCF7 cells assessed as effect on creatinine level in serum at 5 to 10 mg/kg, iv measured after 24 hrs; format: toxicity, organism-based; settings: in vivo, dose 5-10 mg/kg
# [24] = target: T1, Estrogen receptor (Homo sapiens); test: HyT degrader activity at ER-alpha in human MCF7 cells assessed as induction of ER-alpha degradation by measuring residual ER-alpha level at 10 uM pretreated with HSP70 inhibitor, VER-155008 for 2 hrs followed by incubation with compound for 12 hrs by immunoblot analysis; format: cell-based
# [25] = Toxicity in Balb/c mouse xenografted with human MCF7 cells assessed as effect on platelets count at 5 to 10 mg/kg, iv measured after 24 hrs; format: organism-based; settings: in vivo, dose 5-10 mg/kg
# Sequence of Estrogen receptor beta (Homo sapiens) (Q92731 whole entry): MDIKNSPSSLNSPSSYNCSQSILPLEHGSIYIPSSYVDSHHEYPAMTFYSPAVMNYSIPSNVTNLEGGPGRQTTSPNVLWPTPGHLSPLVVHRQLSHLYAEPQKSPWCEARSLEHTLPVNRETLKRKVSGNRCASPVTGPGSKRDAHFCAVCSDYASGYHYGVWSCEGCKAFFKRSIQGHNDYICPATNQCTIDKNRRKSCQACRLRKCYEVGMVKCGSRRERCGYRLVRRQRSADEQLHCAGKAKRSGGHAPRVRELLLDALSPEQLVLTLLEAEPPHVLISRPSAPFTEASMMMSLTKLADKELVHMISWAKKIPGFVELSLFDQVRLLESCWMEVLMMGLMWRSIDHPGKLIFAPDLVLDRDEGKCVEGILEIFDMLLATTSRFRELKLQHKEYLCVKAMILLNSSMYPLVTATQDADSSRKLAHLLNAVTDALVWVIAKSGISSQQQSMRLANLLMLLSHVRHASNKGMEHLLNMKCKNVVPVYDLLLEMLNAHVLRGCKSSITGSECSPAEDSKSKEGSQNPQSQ
compound,measurement,setting,value
C[C@@H]1CCC2[C@]34OO[C@](C)(CCC13)O[C@@H]4O[C@]2(C)C(=O)NCCCOc1ccc(C(=O)c2c(-c3ccc(O)cc3)sc3cc(O)ccc23)cc1 (stereo not given in full),inhibition (INH),[1],56.7%
same,inhibition in vivo at 5 mg/kg,[2],93.3%
same,Activity,[3],Non-toxic
same,inhibition in vivo at 10 mg/kg,[4],112%
same,Activity,[5],Non-toxic
same,Activity,[6],Non-toxic
same,Activity,[7],91%
same,IC50,[8],2280 nM
same,Activity,[9],Active
same,Activity,[10],Active; Weak Affinity
same,Activity,[11],Non-toxic
same,Activity,[12],inactive
same,Activity,[13],Active
same,Activity,[14],83.1%
same,Activity,[15],65.1 mm3
same,inhibition (INH),[16],73.5%
same,Activity,[17],Non-toxic
same,Activity,[18],inactive
same,inhibition (INH),[19],63.6%
same,Activity,[20],Non-toxic
same,Activity,[21],Dose-dependent-effect
same,Activity,[22],inactive
same,Activity,[23],Non-toxic
same,Activity,[24],71.9%
same,Activity,[25],Non-toxic
